Values of other authors as cited in patent publication US7022342B2, “Controlled release oral dosage form of beta-adrenergic blocking agents” (Andrx Corporation, Inc., priority 2002, dated 2006).

Experiments:
[1] = after oral administration of the conventional tablets

For `CC(C)NCC(O)COc1cccc2ccccc12` (centres unmarked) [Propranolol], the “time of peak plasma concentrations” value [1] is listed as 60 to 90 min and the solubility in water is listed as “freely soluble”.
